Among the test systems are DU-145; EKVX; KM12; LOX IMVI; MDA-MB-435; MDA-N; NCI-H23; NCI-H460; OVCAR-3; SF-295; SF-539; SN12C; SNB-19; SR; T47D; TK-10; U-251; UACC-257; BT-549.
Common to all, as to assay: NCI tumour cell line growth inhibition, 48 h

Each structure is given as a SMILES string.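 1) Cells in 96-well plates. 2) Compound, 48 h, 5 concentrations. 3) Linear interpolation between surrounding doses. 4) Unreached endpoint = highest concentration. The concentration for 50% growth inhibition is given as GI50.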 Activity calls are given as the source filed them. No stated cut-off is given here; in the data, active = GI50 up to about 1.1 µM and inactive = higher.

With `CC(=O)c1ccc2c(c1)CC1(C2)Cc2cc3c(cc2C1)C(=O)CC3` (stereo unspecified), the GI50 is 1.4 µM (inactive) in the test on DU-145; 6 µM (inactive) with EKVX; 0.624 µM (active) with KM12; 6.37 µM (inactive) in the test on LOX IMVI; 0.242 µM (active) in the test on MDA-MB-435; 0.207 µM (active) in the test with MDA-N. The GI50 in the test with NCI-H23 was 3.06 µM (inactive); in the test with NCI-H460, 0.453 µM (active); with OVCAR-3, 0.493 µM (active); in the test with SF-295, 0.594 µM (active); in the test with SF-539, 0.733 µM (active); in the test with SN12C, 4.25 µM (inactive). Besides, the GI50 in the test with SNB-19 is 1.67 µM (inactive); with SR, 0.322 µM (active); with T47D, 3.33 µM (inactive); with TK-10, 9.35 µM (inactive); with U-251 it was 1.8 µM (inactive); in the test on UACC-257, 11.4 µM (inactive).
Consider `CCCNC(=S)N/N=C1\C(=O)Nc2ccccc21`, for which the GI50 in the test with DU-145, with EKVX, in the test on KM12, in the test on LOX IMVI, with MDA-MB-435 and in the test with MDA-N was > 100 µM (inactive) in each case. The GI50 in the test on NCI-H23, in the test with NCI-H460, in the test with OVCAR-3, in the test with SF-295, in the test on SF-539 and with SN12C was > 100 µM (inactive) throughout. For the same molecule, the GI50 in the test on SNB-19, in the test with SR, in the test with T47D, with TK-10, with U-251 and in the test with UACC-257 was > 100 µM (inactive) throughout.
Take `C=CCCC(CCC=C)(C(=O)O)C(=O)O`: the GI50 in the test on BT-549, in the test on DU-145, in the test with EKVX, in the test on KM12, in the test on LOX IMVI and with MDA-MB-435 was > 100 µM (inactive) throughout. Further, the GI50 in the test with MDA-N, in the test with NCI-H23, in the test on NCI-H460, in the test with OVCAR-3, with SF-295 and in the test on SF-539 was > 100 µM (inactive) throughout. The GI50 in the test on SN12C, in the test with SNB-19, in the test with SR, with TK-10, with U-251 and with UACC-257 was > 100 µM (inactive) in each case.
On to `CN(CCCCN)c1ccc2c(=O)[nH][nH]c(=O)c2c1`, for which the GI50 is > 100 µM (inactive) with EKVX; > 100 µM (inactive) in the test on KM12; > 100 µM (inactive) with LOX IMVI; 2.24 µM (inactive) with NCI-H23; > 100 µM (inactive) in the test on NCI-H460; > 100 µM (inactive) in the test on OVCAR-3. The GI50 with SF-295 is > 100 µM (inactive); with SF-539 it was > 100 µM (inactive); in the test on SN12C, > 100 µM (inactive); with SNB-19, > 10 µM (inactive); in the test with TK-10, > 100 µM (inactive); in the test with U-251, > 100 µM (inactive). Further, in the test on UACC-257, the GI50 was > 100 µM (inactive).
With `Nc1nnc2n1C(=O)C(C1(C3=Nc4nnc(N)n4C3=O)Cc3ccccc3C1=O)=N2`, the GI50 with DU-145 was > 100 µM (inactive); in the test on EKVX, > 100 µM (inactive); in the test on KM12 it was > 100 µM (inactive); in the test on LOX IMVI, 87.5 µM (inactive); in the test with MDA-MB-435, > 100 µM (inactive); in the test with MDA-N, > 100 µM (inactive). For the same molecule, the GI50 in the test on NCI-H23, with NCI-H460, in the test with OVCAR-3, in the test with SF-295, in the test with SF-539 and in the test with SN12C was > 100 µM (inactive) throughout. The GI50 in the test with SNB-19 is > 100 µM (inactive); in the test with SR, 76.6 µM (inactive); in the test with T47D, 64.9 µM (inactive); in the test on TK-10, > 100 µM (inactive); in the test with UACC-257, > 100 µM (inactive).
Consider `Cn1c2c(c3ccccc31)CCN1C(=O)CN(C(=O)C3CCCCC3)CC21` (stereo unspecified), for which the GI50 with DU-145, in the test on EKVX, in the test on KM12, in the test on LOX IMVI, in the test with MDA-MB-435 and with MDA-N was > 100 µM (inactive) in each case. The GI50 in the test with NCI-H23, in the test with NCI-H460, in the test with OVCAR-3, in the test with SF-295, in the test on SF-539 and in the test with SN12C was > 100 µM (inactive) each time. Besides, the GI50 in the test with SNB-19, in the test with SR, in the test with T47D, in the test with TK-10, with U-251 and in the test with UACC-257 was > 100 µM (inactive) throughout.
As to `NNC(=O)c1ccc(-n2nnc(C(=O)NN)c2C(=O)NN)cc1`, the GI50 in the test on BT-549, in the test with DU-145, with EKVX, with KM12, in the test with LOX IMVI and with MDA-MB-435 was > 100 µM (inactive) in each case. In addition, the GI50 with MDA-N, in the test on NCI-H23, in the test with NCI-H460, in the test with OVCAR-3, in the test with SF-295 and in the test with SN12C was > 100 µM (inactive) in each case. Further, the GI50 in the test with SNB-19, in the test with SR, in the test on TK-10, in the test with U-251 and in the test on UACC-257 was > 100 µM (inactive) in each case.
`C[C@@H]1[C@H](O)CC2=C(CC[C@@H](O)C2(C)C)[C@@]1(CO)CCc1ccoc1`: the GI50 in the test with BT-549, in the test on EKVX, with KM12, with LOX IMVI, in the test on MDA-N and with NCI-H23 was > 50 µM (inactive) each time. For the same molecule, the GI50 in the test on NCI-H460, in the test on OVCAR-3, in the test on SF-295, in the test on SF-539, in the test on SN12C and with SNB-19 was > 50 µM (inactive) in each case. In addition, the GI50 in the test with SR was 25.1 µM (inactive); in the test with TK-10, > 50 µM (inactive); with U-251, > 50 µM (inactive); with UACC-257, > 50 µM (inactive).
With `CCOC(=O)C(=Cc1ccccc1Br)C(=O)OCC`, the GI50 in the test on BT-549 was 2.51 µM (inactive); in the test on DU-145 it was 0.508 µM (active); in the test on EKVX, 4.18 µM (inactive); in the test on KM12, 1.62 µM (inactive); in the test with LOX IMVI it was 0.695 µM (active); in the test with MDA-MB-435 it was 1.69 µM (inactive). In addition, the GI50 is 2.48 µM (inactive) with NCI-H23; 3.26 µM (inactive) with NCI-H460; 2.07 µM (inactive) in the test with OVCAR-3; 3.26 µM (inactive) in the test on SF-295; 2.34 µM (inactive) with SF-539; 2.84 µM (inactive) in the test on SN12C. The GI50 in the test on SNB-19 was 2.53 µM (inactive); with SR it was 0.208 µM (active); in the test with TK-10, 3.47 µM (inactive); in the test with U-251 it was 1.66 µM (inactive); in the test on UACC-257 it was 3.58 µM (inactive).
For `O=C(NC(=S)NC(=O)c1cc(O)c(O)c(O)c1)c1cc(O)c(O)c(O)c1`, the GI50 in the test on DU-145 was 25.5 µM (inactive); in the test on KM12 it was 24.5 µM (inactive); with LOX IMVI, 12.8 µM (inactive); in the test with MDA-MB-435 it was 7.93 µM (inactive); with MDA-N, 2.65 µM (inactive); in the test on NCI-H23 it was 23.7 µM (inactive). Also, the GI50 in the test on NCI-H460 was 26.5 µM (inactive); in the test with SF-295 it was 17.1 µM (inactive); in the test with SF-539 it was 30.8 µM (inactive); in the test with SN12C it was 24.7 µM (inactive); with SNB-19 it was 24.2 µM (inactive); with SR, > 100 µM (inactive). Besides, the GI50 was 28.4 µM (inactive) in the test on TK-10, 27 µM (inactive) in the test with U-251 and 22.3 µM (inactive) with UACC-257.
Turning to `CC(C)(C)C1=C(Br)C(C(C)(C)C)OP1(=O)O` (stereo unspecified), the GI50 in the test with DU-145, in the test on EKVX, in the test with KM12, with LOX IMVI, in the test with MDA-MB-435 and with MDA-N was > 100 µM (inactive) in each case. In addition, the GI50 in the test on NCI-H23, with NCI-H460, in the test on OVCAR-3, in the test with SF-295, in the test on SF-539 and in the test with SN12C was > 100 µM (inactive) each time. Also, the GI50 in the test with SNB-19, in the test on T47D, in the test on TK-10, in the test on U-251 and in the test with UACC-257 was > 100 µM (inactive) in each case.
For the molecule `Nc1ccccc1Nc1ccccc1C(=O)[O-].Nc1ccccc1Nc1ccccc1C(=O)[O-].[Zn+2]`, the GI50 in the test with EKVX is > 100 µM (inactive); in the test on KM12 it was > 100 µM (inactive); in the test with NCI-H23, > 100 µM (inactive); in the test on NCI-H460 it was > 100 µM (inactive); with OVCAR-3, 23.4 µM (inactive); in the test with SF-295, 32.8 µM (inactive). The GI50 with SF-539 is > 100 µM (inactive); in the test with SN12C, > 100 µM (inactive); with SNB-19, > 100 µM (inactive); with TK-10 it was > 100 µM (inactive); with U-251, > 100 µM (inactive); in the test on UACC-257 it was 33.7 µM (inactive).

The values above are taken from ChEMBL document CHEMBL1201862, “PubChem BioAssay data set” (2004).
